Assay results taken from patent US20260158017A1, “KIF18A INHIBITOR” (WIGEN BIOMEDICINE TECHNOLOGY (SHANGHAI) CO., LTD., priority 2021, published 2026).

How the values were obtained:
[1] = target: T1, Recombinant human KIF18A (1-467His-tagged) protein (Homo sapiens, UniProt Q8NI77); test: KIF18A enzyme assay (microtubule-stimulated ATPase activity, ADP-Glo); assay type: biochemical; conditions: 30 nM KIF18A, 75 μM ATP, 30 μg/mL pig microtubules; read-out: Inhibitory activity against KIF18A IC50
T1 construct: Recombinant human KIF18A (1-467His-tagged) protein; His; made in house
How it was run: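 Buffer 15 mM Tris pH 7.5, 10 mM MgCl2, 0.01% Pluronic F-68, 1 μM paclitaxel, 30 μg/mL pig microtubules; reactions at room temperature. IC50 from inhibition relative to DMSO.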

HT-29 cells = test: In vitro anti-proliferative activity against HT-29 cells (intracellular ATP content, 72 h); assay type: cell-based; conditions: Homo sapiens, 72 h after dosing
Procedure: Biological Example 2. In Vitro Anti-Proliferative Activity of the Compounds of the Present Invention Against HT-29 Cells
HT-29 cells were seeded on a 384-well plate at 3000 cells/well. After overnight adherence culture, DMSO or the compounds serially 1:5-diluted from 5 μM were added. The viability of the cells was assessed 72 h after dosing by measuring the intracellular ATP content. The inhibition percentages of viable cells by the compounds were calculated by comparing with the DMSO group, and the IC50 values were also calculated.

HCT116 cells = test: In vitro anti-proliferative activity against HCT116 cells (intracellular ATP content, 72 h); assay type: cell-based; conditions: Homo sapiens, HCT-116, 72 h after dosing
Procedure: Biological Example 3. In Vitro Anti-Proliferative Activity of the Compounds of the Present Invention Against HCT116 Cells
HCT116 cells were seeded on a 384-well plate at 3000 cells/well. After overnight adherence culture, DMSO or the compounds serially 1:5-diluted from 5 μM were added. The viability of the cells was assessed 72 h after dosing by measuring the intracellular ATP content. The inhibition percentages of viable cells by the compounds were calculated by comparing with the DMSO group, and the IC 50 values were also calculated.

[2] = test system: Histone H3 Ser10 sites in HT29 cells; test: Phosphorylation assay of histone H3 Ser10 sites in HT29 cells (immunofluorescence assay); assay type: cell-based; conditions: Homo sapiens, HT-29, 6 h after addition, FITC/DAPI ratio
Procedure: Biological Example 5. Phosphorylation Assay of Histone H3 Ser10 Sites in HT29 Cells (Immunofluorescence Assay)
HT29 cells were seeded in a 96-well plate (Fisher 160376) at 8000 cells/well. The next day, the serially diluted compounds were added. 6 h after the addition of the compounds, the cells were washed once with 1×PBS, immobilized with 4% PFA for 15 min, further washed three times with 1×PBS, and permeabilized with 0.02% Triton-X100 for 10 min. A blocking buffer was then added for blocking for 15-30 min, and 1:3000-diluted primary antibodies (Phospho-Histone H3 (Ser10) (D7N8E) XP® Rabbit mAb #53348) were added. The plate was placed at 4° C. overnight. The next day, the cells were washed three times with 1×PBS, and 1:1000-diluted secondary antibodies (Fluorescein (FITC)-conjugated Affinipure Goat Anti-Rabbit IgG (H+L)) were added. The cells were incubated in the dark for 1-2 h and washed three times with 1×PBS. The nuclei were stained with DAPI, and after the staining was completed, photographs were taken using an MD ImageXpress Pico personal high-content imaging analysis system. The ratio of phosphorylation (FITC/DAPI) at H3 Ser10 sites in HT29 cells was quantified. To evaluate the effects of the compounds on the mitosis phase of HT29 cells, the EC50 values of the compounds were calculated.

[3] = test system: HT29 subcutaneous xenograft tumor; test: In vivo pharmacodynamic study, mouse HT29 subcutaneous xenograft tumor model; set-up: species or system BALB/c nude mice; conditions: for Tumor volume on day 1 of treatment / Tumor volume on day 28 of treatment / TGI (tumor growth inhibition): 80 mg/kg intragastric once daily; for Tumor volume on day 1 of treatment: baseline day 1; for TGI (tumor growth inhibition): day 28 vs day 1; for Inhibitory effect on HT29 mouse subcutaneous xenograft tumor (in words): 80 mg/kg, comparison with AMG650
Procedure: Biological Example 4. In Vivo Pharmacodynamic Study-Mouse HT29 Subcutaneous Xenograft Tumor Model
BALB/c nude mice were inoculated subcutaneously with 5×10^6 HT29 cells on the left dorsal side. After the tumors grew to 100-150 mm^3, the mice were randomly divided into the following groups for intragastric administration once daily: group 1: vehicle control group; group 2: compound 661 (80 mg/kg); group 3: compound 669 (80 mg/kg); group 4: compound 677 (80 mg/kg); group 5: compound 714 (80 mg/kg); group 6: compound 727 (80 mg/kg); group 7: compound 740 (80 mg/kg); and group 8: AMG650 (80 mg/kg). The tumor volume was measured twice weekly and at the end of treatment.

T1 sequence (Q8NI77 1-467): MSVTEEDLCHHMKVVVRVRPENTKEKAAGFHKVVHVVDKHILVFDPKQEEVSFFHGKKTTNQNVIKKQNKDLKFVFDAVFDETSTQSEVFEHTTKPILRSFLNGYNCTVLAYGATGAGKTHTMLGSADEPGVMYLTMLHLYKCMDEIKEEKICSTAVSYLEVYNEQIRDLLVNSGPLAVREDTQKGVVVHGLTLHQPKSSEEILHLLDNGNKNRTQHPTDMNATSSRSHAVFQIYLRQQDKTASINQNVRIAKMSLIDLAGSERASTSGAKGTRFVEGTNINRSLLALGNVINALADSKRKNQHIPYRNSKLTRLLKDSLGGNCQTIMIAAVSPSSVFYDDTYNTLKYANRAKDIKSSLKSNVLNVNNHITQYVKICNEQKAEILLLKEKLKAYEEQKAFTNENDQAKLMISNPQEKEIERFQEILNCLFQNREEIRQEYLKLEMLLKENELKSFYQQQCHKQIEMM
T1 sequence (P02550 whole entry partner): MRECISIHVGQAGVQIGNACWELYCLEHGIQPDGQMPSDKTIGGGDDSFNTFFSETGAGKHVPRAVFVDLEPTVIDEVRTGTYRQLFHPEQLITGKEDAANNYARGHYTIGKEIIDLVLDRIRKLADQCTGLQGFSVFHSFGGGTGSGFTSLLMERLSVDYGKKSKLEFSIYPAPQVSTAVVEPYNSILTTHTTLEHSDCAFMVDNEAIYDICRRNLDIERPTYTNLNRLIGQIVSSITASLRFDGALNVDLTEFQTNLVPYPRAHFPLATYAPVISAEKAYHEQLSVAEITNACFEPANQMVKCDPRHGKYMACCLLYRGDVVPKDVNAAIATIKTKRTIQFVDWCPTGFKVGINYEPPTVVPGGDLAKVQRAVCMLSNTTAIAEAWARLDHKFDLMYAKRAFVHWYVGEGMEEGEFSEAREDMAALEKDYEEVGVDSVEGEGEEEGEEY
T1 sequence (P02554 whole entry partner): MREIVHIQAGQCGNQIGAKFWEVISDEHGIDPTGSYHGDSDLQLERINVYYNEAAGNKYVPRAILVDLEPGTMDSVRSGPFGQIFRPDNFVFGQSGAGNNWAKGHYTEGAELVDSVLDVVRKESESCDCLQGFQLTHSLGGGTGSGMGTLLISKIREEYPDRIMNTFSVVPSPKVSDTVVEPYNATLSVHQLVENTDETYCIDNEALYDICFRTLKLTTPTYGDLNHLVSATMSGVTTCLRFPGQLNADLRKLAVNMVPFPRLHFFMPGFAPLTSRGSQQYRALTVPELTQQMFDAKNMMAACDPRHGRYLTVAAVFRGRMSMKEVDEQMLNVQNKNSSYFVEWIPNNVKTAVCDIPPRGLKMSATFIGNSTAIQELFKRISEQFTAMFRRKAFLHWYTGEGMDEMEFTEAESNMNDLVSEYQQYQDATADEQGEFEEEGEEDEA

| SMILES | IC50 [1] [µM] | IC50 (HT-29 cells) [µM] | IC50 (HCT116 cells) [µM] | EC50 [2] [µM] | Tumor volume on day 1 of treatment [3] [mm^3] | Tumor volume on day 28 of treatment [3] [mm^3] | TGI (tumor growth inhibition) [3] [%] | Inhibitory effect on HT29 mouse subcutaneous xenograft tumor (in words) [3] |
| --- | --- | --- | --- | --- | --- | --- | --- | --- |
| O=C(Nc1ccc([N+](=O)[O-])c(N2CCC(F)(F)CC2)c1)c1ccc(NS(=O)(=O)CCO)cc1N1CCC2(CC1)CC2 [Compound 1] | ≤ 0.1 | 0.0753 | > 10 |  |  |  |  |  |
| C[C@H]1CN(c2cc(NC(=O)c3ccc(NS(=O)(=O)CCO)cc3N3CCC4(CC3)CC4)ccc2[N+](=O)[O-])CCO1 [Compound 3] | ≤ 0.1 | 1.6 | > 10 |  |  |  |  |  |
| O=C(Nc1ccc([N+](=O)[O-])c(N2CC(F)(F)C2)c1)c1ccc(NS(=O)(=O)CCO)cc1N1CCC2(CC1)CC2 [Compound 4] | ≤ 0.1 | 0.191 | > 10 |  |  |  |  |  |
| O=C(Nc1ccc([N+](=O)[O-])c(N2CCC3(CC3)C2)c1)c1ccc(NS(=O)(=O)CCO)cc1N1CCC2(CC1)CC2 [Compound 6] | ≤ 0.1 | 0.826 | > 10 |  |  |  |  |  |
| O=C(Nc1ccc([N+](=O)[O-])c(OC2CCC2)c1)c1ccc(NS(=O)(=O)CCO)cc1N1CCC2(CC1)CC2 [Compound 7] | ≤ 0.1 | 0.339 | > 10 |  |  |  |  |  |
| O=C(Nc1ccc([N+](=O)[O-])c(N2CCC(F)(F)CC2)c1)c1cnc(NS(=O)(=O)CCO)cc1N1CCC2(CC1)CC2 [Compound 97] | ≤ 0.1 | > 2 | > 10 |  |  |  |  |  |
| O=C(Nc1ccc([N+](=O)[O-])c(N2CCC(F)(F)CC2)n1)c1cnc(NS(=O)(=O)CCO)cc1N1CCC2(CC1)CC2 [Compound 129] | ≤ 0.1 | 0.135 | > 10 |  |  |  |  |  |
| COc1ccc(NC(=O)c2ccc(NS(=O)(=O)CCO)cc2N2CCC3(CC2)CC3)nc1N1CCO[C@H](C)C1 [Compound 258] | ≤ 0.1 | 0.19 | > 10 |  |  |  |  |  |
| COc1ccc(NC(=O)c2ccc(NS(=O)(=O)CCO)cc2N2CCC3(CC2)CC3)nc1N1CCO[C@@H](C)C1 [Compound 259] | ≤ 0.1 | 0.282 | > 10 |  |  |  |  |  |
| COc1ccc(NC(=O)c2ccc(NS(=O)(=O)CCO)cc2N2CCC3(CC2)CC3)nc1N1CC(F)(F)C1 [Compound 260] | ≤ 0.1 | 0.0552 | > 10 |  |  |  |  |  |
| COc1ccc(NC(=O)c2ccc(NS(=O)(=O)CCO)cc2N2CCC3(CC2)CC3)nc1OCCC(F)(F)F [Compound 261] | ≤ 0.1 | 0.0757 | > 10 |  |  |  |  |  |
| COc1ccc(NC(=O)c2ccc(NS(=O)(=O)CCO)cc2N2CCC3(CC2)CC3)nc1N1CCC2(CC2)C1 [Compound 262] | ≤ 0.1 | 0.242 | > 10 |  |  |  |  |  |
| COc1ccc(NC(=O)c2ccc(NS(=O)(=O)CCO)cc2N2CCC3(CC2)CC3)nc1OC1CCC1 [Compound 263] | ≤ 0.1 | 0.0857 | > 10 |  |  |  |  |  |
| COc1ccc(NC(=O)c2ccc(S(=O)(=O)NCCO)cc2N2CCC3(CC2)CC3)nc1N1CCC(F)(F)CC1 [Compound 273] | ≤ 0.1 |  |  | 0.0085 |  |  |  |  |
| COc1ccc(NC(=O)c2cnc(NS(=O)(=O)CCO)cc2N2CCC3(CC2)CC3)nc1N1CCC(F)(F)CC1 [Compound 289] | ≤ 0.1 | 0.0277 | > 10 |  |  |  |  |  |
| COc1ccc(NC(=O)c2cnc(S(=O)(=O)NCCO)cc2N2CCC3(CC2)CC3)nc1N1CCC(F)(F)CC1 [Compound 305] | ≤ 0.1 | 0.0404 | > 10 |  |  |  |  |  |
| COc1ccc(C(=O)Nc2ccc(S(=O)(=O)NCCO)cc2N2CCC3(CC2)CC3)nc1N1CCC(F)(F)CC1 [Compound 337] | ≤ 0.1 | 0.0488 | > 10 |  |  |  |  |  |
| O=C(Nc1ccc(OCF)c(N2CCC(F)(F)CC2)c1)c1ccc(NS(=O)(=O)CCO)cc1N1CCC2(CC1)CC2 [Compound 385] | ≤ 0.1 | 0.146 | > 10 |  |  |  |  |  |
| CSc1ccc(NC(=O)c2ccc(NS(=O)(=O)CCO)cc2N2CCC3(CC2)CC3)nc1N1CCC(F)(F)CC1 [Compound 593] | ≤ 0.1 | 0.0979 | > 10 |  |  |  |  |  |
| CNc1ccc(NC(=O)c2ccc(NS(=O)(=O)CCO)cc2N2CCC3(CC2)CC3)cc1N1CCC(F)(F)CC1 [Compound 641] |  | 0.0758 | > 10 | 0.0217 |  |  |  |  |
| CN(C)c1ccc(NC(=O)c2ccc(NS(=O)(=O)CCO)cc2N2CCC3(CC2)CC3)cc1N1CCC(F)(F)CC1 [Compound 645] |  | 0.0713 | > 10 | 0.0696 |  |  |  |  |
| COc1ccc(C(=O)Nc2ccc(NS(=O)(=O)CCOC(C)=O)cc2N2CCC3(CC2)CC3)nc1N1CCC(F)(F)CC1 [Compound 669] |  | 0.0258 | > 10 |  | 121 | 1158 | 30 |  |
| COc1ccc(NC(=O)c2ccc(S(=O)(=O)NCCOC(C)=O)cc2N2CCC3(CC2)CC3)nc1N1CCC(F)(F)CC1 [Compound 677] |  |  |  |  | 121 | 797 | 55 |  |
| COc1ccc(C(=O)Nc2ccc(NS(=O)(=O)CCOC(=O)[C@@H](N)C(C)C)cc2N2CCC3(CC2)CC3)nc1N1CCC(F)(F)CC1 [Compound 727] |  |  |  |  | 121 | 519 | 73 | stronger inhibitory effects |
| COc1ccc(NC(=O)c2ccc(S(=O)(=O)NCCOC(=O)[C@@H](N)C(C)C)cc2N2CCC3(CC2)CC3)nc1N1CCC(F)(F)CC1 [Compound 740] |  |  |  |  | 121 | 605 | 67 | stronger inhibitory effects |
| COc1ccc(NC(=O)c2ccc(NS(=O)(=O)CCO)cc2N2CCC(C)(C(F)(F)F)CC2)nc1N1CCC(F)(F)CC1 [Compound 833] |  | 0.0529 | > 10 |  |  |  |  |  |
| COc1ccc(NC(=O)c2ccc(NS(=O)(=O)CCO)cc2N2CCC3(CC2)CC3)nc1NCCC(F)(F)F [Compound 835] |  | 0.0707 | > 10 |  |  |  |  |  |
| COc1c(C)cc(NC(=O)c2ccc(NS(=O)(=O)CCO)cc2N2CCC3(CC2)CC3)nc1N1CCC(F)(F)CC1 [Compound 836] |  | 0.253 | > 10 |  |  |  |  |  |
